Measured values from ChEMBL document CHEMBL1201862, “PubChem BioAssay data set” (2004).
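Briefly, cells in 96-well plates were exposed to five compound concentrations for 48 h, and endpoints were estimated by linear interpolation. Here, GI50 denotes the concentration required for 50% inhibition of growth.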 Active and inactive are the calls of the source. Rule as the data show it: active = GI50 up to about 1.1 µM and inactive = higher.

Key:
Test in all cases: growth of human tumour cells (NCI), 48 h
CCRF-CEM = system: CCRF-CEM
EKVX = system: EKVX
HOP-62 = system: HOP-62
HOP-92 = system: HOP-92
HT-29 = system: HT-29
LOX IMVI = system: LOX IMVI
M14 = system: M14
NCI-H226 = system: NCI-H226
NCI-H522 = system: NCI-H522
OVCAR-3 = system: OVCAR-3
OVCAR-5 = system: OVCAR-5
RPMI-8226 = system: RPMI-8226
SF-268 = system: SF-268
SK-OV-3 = system: SK-OV-3
SN12C = system: SN12C
SW-620 = system: SW-620
UACC-257 = system: UACC-257
UACC-62 = system: UACC-62
Hs-578T = system: Hs-578T

Measured: GI50

CNc1ccc(/C=C2\C=Cc3ccccc32)cc1
inactive: CCRF-CEM 43.4 µM | EKVX 20.1 µM | HOP-62 18.9 µM | HOP-92 19.1 µM | HT-29 18.7 µM | LOX IMVI 11.5 µM | M14 16.3 µM | NCI-H226 25.1 µM | NCI-H522 10.8 µM | OVCAR-3 21.2 µM | OVCAR-5 18.8 µM | RPMI-8226 54.3 µM | SF-268 5.55 µM | SK-OV-3 26.5 µM | SN12C 29.9 µM | SW-620 33.1 µM | UACC-257 23.4 µM | UACC-62 20.1 µM

C=C1C(=O)OC2/C=C(\C=O)CC/C=C(\C)C(O)C[C@@H]12 (stereo partly specified)
inactive: CCRF-CEM 2.57 µM | EKVX 15.6 µM | HOP-62 28.1 µM | HOP-92 5.9 µM | HT-29 3.08 µM | LOX IMVI 6.18 µM | M14 3.36 µM | NCI-H226 20.4 µM | NCI-H522 1.54 µM | OVCAR-3 9.46 µM | OVCAR-5 23.6 µM | RPMI-8226 1.95 µM | SF-268 8.61 µM | SK-OV-3 21.3 µM | SN12C 7.52 µM | SW-620 2.72 µM | UACC-257 5.93 µM | UACC-62 5.87 µM

N#CCCC1(CCC#N)CCCCCCC(CCC#N)(CCC#N)C(=O)C1=O
inactive: EKVX > 100 µM | HOP-62 > 100 µM | HOP-92 > 100 µM | HT-29 > 100 µM | Hs-578T > 100 µM | LOX IMVI > 100 µM | M14 > 100 µM | NCI-H522 > 100 µM | OVCAR-3 > 100 µM | OVCAR-5 > 100 µM | SF-268 > 100 µM | SK-OV-3 > 100 µM | SN12C 58.2 µM | SW-620 > 100 µM | UACC-257 > 100 µM | UACC-62 > 100 µM

COC(=O)c1oc([N+](=O)[O-])c(-c2ccccc2)c1-c1ccccc1
inactive: CCRF-CEM 67.9 µM | EKVX > 100 µM | HOP-62 > 100 µM | HOP-92 > 100 µM | HT-29 88.3 µM | LOX IMVI 35.5 µM | M14 > 100 µM | NCI-H226 > 100 µM | NCI-H522 > 100 µM | OVCAR-3 > 100 µM | OVCAR-5 > 100 µM | RPMI-8226 > 100 µM | SF-268 > 100 µM | SK-OV-3 > 100 µM | SN12C > 100 µM | SW-620 > 100 µM | UACC-257 > 100 µM | UACC-62 67 µM

CN(C)C(=S)/N=c1\ss/c(=N\C(=S)N(C)C)n1-c1ccc(Cl)cc1
inactive: CCRF-CEM > 100 µM | EKVX > 100 µM | HOP-62 > 100 µM | HOP-92 > 100 µM | HT-29 > 100 µM | LOX IMVI > 100 µM | M14 > 100 µM | NCI-H226 > 100 µM | NCI-H522 87.9 µM | OVCAR-3 > 100 µM | OVCAR-5 > 100 µM | RPMI-8226 > 100 µM | SF-268 > 100 µM | SK-OV-3 > 100 µM | SN12C > 100 µM | SW-620 > 100 µM | UACC-257 > 100 µM | UACC-62 > 100 µM

CC(=O)Nc1ccc(C2C(C(=O)Nc3ccccc3)=C(C)NC(C)=C2C(=O)Nc2ccccc2)cc1
inactive: CCRF-CEM 35.2 µM | EKVX > 100 µM | HOP-62 > 100 µM | HOP-92 > 100 µM | HT-29 > 100 µM | LOX IMVI > 79.6 µM | M14 > 100 µM | NCI-H226 > 100 µM | NCI-H522 64 µM | OVCAR-3 > 100 µM | OVCAR-5 > 100 µM | RPMI-8226 > 100 µM | SF-268 > 100 µM | SK-OV-3 > 100 µM | SN12C > 100 µM | SW-620 98.4 µM | UACC-257 > 100 µM | UACC-62 > 80.5 µM

NNC(=S)N/N=C(\c1nc2ccc(Cl)cc2nc1O)C(O)c1cccc([N+](=O)[O-])c1 (stereo unspecified)
inactive: CCRF-CEM > 52.5 µM | EKVX > 100 µM | HOP-62 > 38.9 µM | HOP-92 > 86.3 µM | HT-29 > 36.1 µM | LOX IMVI > 40.5 µM | M14 > 53.5 µM | NCI-H226 > 100 µM | NCI-H522 > 100 µM | OVCAR-3 > 100 µM | OVCAR-5 > 100 µM | RPMI-8226 > 43.3 µM | SF-268 > 52.1 µM | SK-OV-3 > 100 µM | SN12C 72.3 µM | SW-620 20.9 µM | UACC-257 > 100 µM | UACC-62 > 100 µM

COC(=O)/C(C=O)=C/Sc1ccccc1
inactive: CCRF-CEM 57.5 µM | EKVX 29 µM | HOP-62 45.4 µM | HOP-92 52.6 µM | HT-29 25.5 µM | LOX IMVI 8.65 µM | M14 16.6 µM | NCI-H226 15.8 µM | NCI-H522 11.7 µM | OVCAR-3 21.3 µM | OVCAR-5 37.6 µM | RPMI-8226 65.5 µM | SF-268 11 µM | SK-OV-3 42.9 µM | SN12C 19.7 µM | SW-620 37.9 µM | UACC-257 29.8 µM | UACC-62 22.2 µM

Cc1ccccc1NC(=O)C(=O)C(C#N)c1ccccc1C (stereo unspecified)
inactive: CCRF-CEM 30.4 µM | EKVX > 100 µM | HOP-62 > 100 µM | HOP-92 > 100 µM | HT-29 > 100 µM | LOX IMVI 22.5 µM | M14 > 100 µM | NCI-H226 > 100 µM | NCI-H522 59.3 µM | OVCAR-3 > 100 µM | OVCAR-5 > 100 µM | RPMI-8226 > 100 µM | SF-268 > 100 µM | SK-OV-3 > 100 µM | SN12C > 100 µM | SW-620 19.5 µM | UACC-257 > 100 µM | UACC-62 > 100 µM

Clc1ccc2cccc3c2c1C1OC3c2ccccc21 (stereo unspecified)
inactive: CCRF-CEM > 100 µM | EKVX > 100 µM | HOP-62 > 100 µM | HOP-92 70.8 µM | HT-29 36.6 µM | LOX IMVI > 100 µM | M14 > 100 µM | NCI-H226 > 100 µM | NCI-H522 > 100 µM | OVCAR-3 > 100 µM | OVCAR-5 > 100 µM | RPMI-8226 > 100 µM | SF-268 > 100 µM | SK-OV-3 > 100 µM | SN12C > 100 µM | SW-620 > 100 µM | UACC-257 > 100 µM | UACC-62 > 100 µM

CC(C)(C)OC(=O)C1=C(O)C(C(=O)OC(C)(C)C)C23CCCCC12C(C(=O)OC(C)(C)C)C(O)=C3C(=O)OC(C)(C)C (stereo unspecified)
inactive: CCRF-CEM > 100 µM | EKVX > 100 µM | HOP-62 > 100 µM | HOP-92 > 100 µM | HT-29 > 100 µM | LOX IMVI > 100 µM | M14 > 100 µM | NCI-H226 > 100 µM | NCI-H522 > 100 µM | OVCAR-3 > 100 µM | OVCAR-5 > 100 µM | RPMI-8226 > 100 µM | SF-268 > 100 µM | SK-OV-3 > 100 µM | SN12C > 100 µM | SW-620 > 100 µM | UACC-257 > 100 µM | UACC-62 > 100 µM
